Read-outs that look alike come from different tables or passages of the source.

In the assay the target is human NaV 1.8 (Homo sapiens, UniProt Q9Y5Y9). As to the kind of experiment: E-VIPR assay detecting and measuring NaV inhibition properties. The format is cell-based. The conditions noted are these: HEK cells expressing truncated human NaV 1.8. The method in brief:
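HEK cells expressing truncated, fully active human NaV1.8, with KIR2.1 BacMam co-transduction, were loaded with CC2-DMPE/DiSBAC6(3) voltage-sensing dyes for 20 min at room temperature. Compounds were tested in 11-point 3-fold dilutions (300 nM top final), optionally with 25% human serum, under electrical stimulation with FRET read-out.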

[1] abbreviates: in the presence of human serum (compound numbers followed by *), read-out: IC50 in the E-VIPR Assay, performed in the presence of human serum.
[2] abbreviates: no human serum, read-out: IC50 in the E-VIPR Assay.

Sequence of human NaV 1.8 (Q9Y5Y9 126-399 limits assumed): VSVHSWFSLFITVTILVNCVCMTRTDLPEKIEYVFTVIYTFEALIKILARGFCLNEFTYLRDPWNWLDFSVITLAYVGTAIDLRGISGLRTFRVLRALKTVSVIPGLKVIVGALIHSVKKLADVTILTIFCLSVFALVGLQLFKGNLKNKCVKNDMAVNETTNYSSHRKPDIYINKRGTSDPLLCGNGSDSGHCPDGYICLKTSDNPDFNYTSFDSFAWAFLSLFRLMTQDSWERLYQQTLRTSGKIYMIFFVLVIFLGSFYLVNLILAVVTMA
Sequence of human NaV 1.8 (Q9Y5Y9 660-890 limits assumed): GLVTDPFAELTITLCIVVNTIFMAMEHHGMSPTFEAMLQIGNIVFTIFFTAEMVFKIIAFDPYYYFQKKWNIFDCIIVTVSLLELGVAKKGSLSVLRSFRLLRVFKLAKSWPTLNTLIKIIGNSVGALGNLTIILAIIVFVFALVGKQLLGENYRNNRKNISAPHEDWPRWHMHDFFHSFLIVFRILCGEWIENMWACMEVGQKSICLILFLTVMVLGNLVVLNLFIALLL
Sequence of human NaV 1.8 (Q9Y5Y9 1148-1722 limits assumed): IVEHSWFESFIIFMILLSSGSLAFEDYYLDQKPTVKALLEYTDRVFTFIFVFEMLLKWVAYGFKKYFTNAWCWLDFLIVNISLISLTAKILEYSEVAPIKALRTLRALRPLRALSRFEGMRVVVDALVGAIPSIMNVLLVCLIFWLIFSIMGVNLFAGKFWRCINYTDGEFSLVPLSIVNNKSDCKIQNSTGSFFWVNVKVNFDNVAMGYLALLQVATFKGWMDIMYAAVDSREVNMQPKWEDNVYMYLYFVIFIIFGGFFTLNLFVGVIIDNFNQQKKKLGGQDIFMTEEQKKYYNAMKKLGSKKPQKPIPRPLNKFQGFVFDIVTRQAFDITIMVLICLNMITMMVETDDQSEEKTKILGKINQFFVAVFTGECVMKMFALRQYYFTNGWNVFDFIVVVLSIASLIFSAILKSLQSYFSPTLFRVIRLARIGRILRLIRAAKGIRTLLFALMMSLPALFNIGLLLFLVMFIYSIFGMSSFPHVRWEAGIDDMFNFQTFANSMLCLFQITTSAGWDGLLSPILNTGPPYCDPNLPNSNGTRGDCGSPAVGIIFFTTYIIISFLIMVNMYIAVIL

Regarding `COc1c([C@H]2[C@H](C(=O)Nc3ccnc(C(O)CO)c3)OC(C)(C)[C@H]2C)ccc(F)c1F` (relative stereo) [Compound 721, rel-(2R,3S,4S)-3-(3,4-difluoro-2-methoxyphenyl)-N-(2-(1,2-dihydroxyethyl)pyridin-4-yl)-4,5,5-trimethyltetrahydrofuran-2-carboxamide], the IC50 (usually the concentration that gives 50% inhibition) under setting [1] was 100 to 1000 nM.
For `COc1c([C@H]2[C@H](C(=O)Nc3ccc(NC(C)=O)nc3)O[C@@](C)(C(F)(F)F)[C@H]2C)ccc(F)c1F` [Compound 525, (2R,3S,4S,5R)-N-(6-acetamido-3-pyridyl)-3-(3,4-difluoro-2-methoxy-phenyl)-4,5-dimethyl-5-(trifluoromethyl)tetrahydrofuran-2-carboxamide], the IC50 under setting [2] is 10 to 100 nM.
As to `COc1c([C@H]2[C@H](C(=O)Nc3ccc4nc(C(=O)NCCO)cn4c3)O[C@@](C)(C(F)(F)F)[C@H]2C)ccc(F)c1F` [Compound 260, 6-((2R,3S,4S,5R)-3-(3,4-difluoro-2-methoxyphenyl)-4,5-dimethyl-5-(trifluoromethyl)tetrahydrofuran-2-carboxamido)-N-(2-hydroxyethyl)imidazo[1,2-a]pyridine-2-carboxamide], under setting [2], the half-maximal inhibitory concentration (IC50) lay in the range of 10 to 100 nM.
Regarding `COc1c(C2C(C(=O)Nc3cccc(P(C)(C)=O)c3)OC(C)(C(F)(F)F)C2C)ccc(F)c1F` (single isomer, unassigned) [Compound 42, 3-(3,4-difluoro-2-methoxy-phenyl)-N-(3-dimethylphosphorylphenyl)-4,5-dimethyl-5-(trifluoromethyl)tetrahydrofuran-2-carboxamide], the IC50 under setting [2] was less than 10 nM.
Take `COc1c(C2C(C(=O)Nc3ccnc(C(O)CF)c3)OC(C)(C(F)(F)F)C2C)ccc(F)c1F` (single isomer, unassigned) [Compound 252, rel-(2R*,3S*,4S*,5R*)-3-(3,4-difluoro-2-methoxyphenyl)-N-(2-(2-fluoro-1-hydroxyethyl)pyridin-4-y1)-4,5-dimethyl-5-(trifluoromethyl)tetrahydrofuran-2-carboxamide]: under setting [2], the half-maximal inhibitory concentration (IC50) was less than 10 nM.
As for `COc1c(C2CC(C)(C(F)(F)F)OC2C(=O)Nc2ccnc(C(O)C(C)O)c2)ccc(F)c1F` (single isomer, unassigned) [Compound 695], under setting [1], the IC50 was not below 1000 nM.
Consider `COc1c(C2C(C(=O)Nc3ccnc(C(O)C(C)O)c3)OC(C)(C(F)(F)F)C2C)ccc(F)c1C` (single isomer, unassigned) [Compound 143], for which the IC50 under setting [1] was not below 1000 nM.
Turning to `COc1c([C@@H]2[C@@H](C(=O)Nc3ccc4cnnn4c3)O[C@](C)(C(F)(F)F)[C@@H]2C)ccc(F)c1C(F)F` (stereo in doubt) [Compound 160, rel-(2S,3R,4R,5S)-N-([1,2,3]triazolo[1,5-a]pyridin-6-yl)-3-(3-(difluoromethyl)-4-fluoro-2-methoxyphenyl)-4,5-dimethyl-5-(trifluoromethyl)tetrahydrofuran-2-carboxamide], under setting [2], the IC50 was 100 to 1000 nM.
As for `COc1cc(NC(=O)[C@@H]2O[C@@](C)(C(F)(F)F)[C@@H](C)[C@H]2c2ccc(F)c(F)c2OCCO)ccn1` [Compound 544, (2R,3S,4S,5R)-3-(3,4-difluoro-2-(2-hydroxyethoxy)phenyl)-N-(2-methoxypyridin-4-yl)-4,5-dimethyl-5-(trifluoromethyl)tetrahydrofuran-2-carboxamide], the IC50 under setting [2] was in the range of 10 to 100 nM.
On to `CNCc1cc(NC(=O)[C@@H]2O[C@@](C)(C(F)(F)F)[C@@H](C)[C@H]2c2ccc(F)c(F)c2OC)c(F)cn1` (single isomer, unassigned) [Compound 13, 3-(3,4-difluoro-2-methoxy-phenyl)-N-[5-fluoro-2-(methylaminomethyl)-4-pyridyl]-4,5-dimethyl-5-(trifluoromethyl)tetrahydrofuran-2-carboxamide], for which the IC50 under setting [1] lay within 10 to 100 nM.
Take `COc1c([C@H]2[C@H](C(=O)Nc3cncc(S(=O)(=O)N4CCN(C)CC4)c3)O[C@@](C)(C(F)(F)F)[C@H]2C)ccc(F)c1F` [Compound 380, (2R,3S,4S,5R)-3-(3,4-difluoro-2-methoxyphenyl)-4,5-dimethyl-N-(5-((4-methylpiperazin-1-yl)sulfonyl)pyridin-3-yl)-5-(trifluoromethyl)tetrahydrofuran-2-carboxamide]: the IC50 under setting [2] fell in the range of 10 to 100 nM.
As to `Cc1nocc1NC(=O)[C@@H]1O[C@@](C)(C(F)(F)F)[C@@H](C)[C@H]1c1ccc(F)c(F)c1OCCN1CC(C)(F)C1` [Compound 630, (2R,3S,4S,5R)-3-(3,4-difluoro-2-(2-(3-fluoro-3-methylazetidin-1-yl)ethoxy)phenyl)-4,5-dimethyl-N-(3-methylisoxazol-4-yl)-5-(trifluoromethyl)tetrahydrofuran-2-carboxamide], under setting [2], the IC50 is 10 to 100 nM.
In the case of `CCOc1c([C@H]2[C@H](C(=O)Nc3ccnc(C(O)CO)c3)O[C@@](C)(C(F)(F)F)[C@H]2C)ccc(F)c1F` (single isomer, unassigned) [Compound 104, rel-(2R*,3S*,4S*,5R*)-N-(2-(1,2-dihydroxyethyl)pyridin-4-yl)-3-(2-ethoxy-3,4-difluorophenyl)-4,5-dimethyl-5-(trifluoromethyl)tetrahydrofuran-2-carboxamide], the IC50 under setting [2] was less than 10 nM.
On to `COc1cc(F)ccc1[C@H]1C[C@@](C)(C(F)(F)F)O[C@@H]1C(=O)Nc1ccnc(S(C)(=O)=O)c1` (stereo in doubt) [Compound 713, rel-(2S,3R,5S)-3-(4-fluoro-2-methoxyphenyl)-5-methyl-N-(2-(methylsulfonyl)pyridin-4-yl)-5-(trifluoromethyl)tetrahydrofuran-2-carboxamide], for which the 50% inhibitory concentration (IC50) under setting [1] was not below 1000 nM.
In the case of `Cc1nocc1NC(=O)[C@@H]1O[C@@](C)(C(F)(F)F)[C@@H](C)[C@H]1c1ccc(F)c(F)c1OCCN1CCOCC1` [Compound 586, (2R,3S,4S,5R)-3-(3,4-difluoro-2-(2-morpholinoethoxy)phenyl)-4,5-dimethyl-N-(3-methylisoxazol-4-yl)-5-(trifluoromethyl)tetrahydrofuran-2-carboxamide], the IC50 under setting [2] fell in the range of 10 to 100 nM.
For `COCCn1ccc(NC(=O)[C@@H]2O[C@@](C)(C(F)(F)F)[C@@H](C)[C@H]2c2ccc(F)c(F)c2OCCO)n1` [Compound 552, (2R,3S,4S,5R)-3-(3,4-difluoro-2-(2-hydroxyethoxy)phenyl)-N-(1-(2-methoxyethyl)-1H-pyrazol-3-yl)-4,5-dimethyl-5-(trifluoromethyl)tetrahydrofuran-2-carboxamide], under setting [2], the half-inhibitory concentration (IC50) was not below 1000 nM.
The same measure, in the same setting: for `COc1c([C@H]2[C@H](C(=O)Nc3ccnc(O[C@H]4COC[C@H]4O)n3)O[C@@](C)(C(F)(F)F)[C@H]2C)ccc(F)c1F` (single isomer, unassigned) [Compound 242, rel-(2R*,3S*,4S*,5R*)-3-(3,4-difluoro-2-methoxyphenyl)-N-(2-(((3S,4R)-4-hydroxytetrahydrofuran-3-yl)oxy)pyrimidin-4-yl)-4,5-dimethyl-5-(trifluoromethyl)tetrahydrofuran-2-carboxamide] the value was 10 to 100 nM; for `Cc1nn(C(F)F)cc1NC(=O)[C@@H]1O[C@@](C)(C(F)(F)F)[C@@H](C)[C@H]1c1ccc(F)c(F)c1OCC(N)=O` [Compound 605, (2R,3S,4S,5R)-3-(2-(2-amino-2-oxoethoxy)-3,4-difluorophenyl)-N-(1-(difluoromethyl)-3-methyl-1H-pyrazol-4-yl)-4,5-dimethyl-5-(trifluoromethyl)tetrahydrofuran-2-carboxamide], 10 to 100 nM; for `[2H]C([2H])([2H])Oc1c([C@H]2[C@H](C(=O)Nc3ccnc(N4CCNCC4=O)c3)O[C@@](C)(C(F)(F)F)[C@H]2C)ccc(F)c1F` [Compound 515, (2R,3S,4S,5R)-3-[3,4-difluoro-2-(trideuteriomethoxy)phenyl]-4,5-dimethyl-N-[2-(2-oxopiperazin-1-yl)-4-pyridyl]-5-(trifluoromethyl)tetrahydrofuran-2-carboxamide], 10 to 100 nM.
On the same count and under the same terms, in the case of `Cc1ncc(C2CCOC2)cc1NC(=O)[C@@H]1O[C@@](C)(C(F)(F)F)[C@@H](C)[C@H]1c1ccc(F)c(F)c1OCCO` (stereo partly drawn) [Compound 551, (2R,3S,4S,5R)-3-(3,4-difluoro-2-(2-hydroxyethoxy)phenyl)-4,5-dimethyl-N-(2-methyl-5-(tetrahydrofuran-3-yl)pyridin-3-yl)-5-(trifluoromethyl)tetrahydrofuran-2-carboxamide] it was not below 1000 nM.
As to `COc1c([C@H]2[C@H](C(=O)Nc3ccnc(CN4CCOCC4)c3)O[C@@](C)(C(F)(F)F)[C@H]2C)ccc(F)c1F` [Compound 181, (2R,3S,4S,5R)-3-(3,4-difluoro-2-methoxyphenyl)-4,5-dimethyl-N-(2-(morpholinomethyl)pyridin-4-yl)-5-(trifluoromethyl)tetrahydrofuran-2-carboxamide], the half-maximal inhibitory concentration (IC50) under setting [2] was 10 to 100 nM.
The same measure, in the same setting: in the case of `COCC(NC(C)C)c1ccc(NC(=O)[C@@H]2O[C@@](C)(C(F)(F)F)[C@@H](C)[C@H]2c2ccc(F)c(F)c2OC)cn1` (single isomer, unassigned) [Compound 420, rel-(2R*,3S*,4S*,5R*)-3-(3,4-difluoro-2-methoxyphenyl)-N-(6-(1-(isopropylamino)-2-methoxyethyl)pyridin-3-yl)-4,5-dimethyl-5-(trifluoromethyl)-tetrahydrofuran-2-carboxamide] it was not below 1000 nM; in that of `COc1c([C@H]2[C@H](C(=O)Nc3ccnc(CN(C)C)c3)O[C@@](C)(C(F)(F)F)[C@H]2C)ccc(F)c1F` [Compound 183, (2R,3S,4S,5R)-3-(3,4-difluoro-2-methoxyphenyl)-N-(2-((dimethylamino)methyl)pyridin-4-yl)-4,5-dimethyl-5-(trifluoromethyl)tetrahydrofuran-2-carboxamide], less than 10 nM.
With `COc1c([C@H]2[C@H](C(=O)NCC3(c4ccccc4)CC3)O[C@@](C)(C(F)(F)F)[C@H]2C)ccc(F)c1F` [Compound 305, (2R,3S,4S,5R)-3-(3,4-difluoro-2-methoxyphenyl)-4,5-dimethyl-N-((1-phenylcyclopropyl)methyl)-5-(trifluoromethyl)tetrahydrofuran-2-carboxamide], the IC50 under setting [2] is not below 1000 nM.
